From PubChem BioAssay AID2060612 (Molecular Pharmacology Branch, DTP, NCI, 2025)
“And” between values parts separate entries of the source, which are not always exact repeats. Identical values can stand only once.

System: 565232-114-T-J1-PDC complex spheroid viability
Experiment: Anticancer human tumor 565232-114-T-J1-PDC patient-derived bladder carcinoma cell line growth inhibition [CLK]
Conditions: for viability, T/C: stronger effect = lower value
Method in brief: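 Patient-derived tumor cells grown as complex spheroids with HUVEC endothelial cells and mesenchymal stem cells, treated with drug combinations. Concentrations descend in half-log steps from near clinical Cmax, or from 10 microM if Cmax unknown.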

[1] = curve of first compound, second compound 0.0316 µM
[2] = curve of first compound, second compound 0.1 µM
[3] = curve of first compound, second compound 0.316 µM
[4] = curve of first compound, second compound 1 µM
[5] = curve of first compound, second compound 3.16 µM
[6] = curve of first compound, second compound 10 µM
[7] = second compound 0.0316 µM, first compound 0.0316 µM
[8] = second compound 0.0316 µM, first compound 0.1 µM
[9] = second compound 0.0316 µM, first compound 0.316 µM
[10] = second compound 0.0316 µM, first compound 1 µM
[11] = second compound 0.0316 µM, first compound 3.16 µM
[12] = second compound 0.0316 µM, first compound 10 µM
[13] = second compound 0.1 µM, first compound 0.0316 µM
[14] = second compound 0.1 µM, first compound 0.1 µM
[15] = second compound 0.1 µM, first compound 0.316 µM
[16] = second compound 0.1 µM, first compound 1 µM
[17] = second compound 0.1 µM, first compound 3.16 µM
[18] = second compound 0.1 µM, first compound 10 µM
[19] = second compound 0.316 µM, first compound 0.0316 µM
[20] = second compound 0.316 µM, first compound 0.1 µM
[21] = second compound 0.316 µM, first compound 0.316 µM
[22] = second compound 0.316 µM, first compound 1 µM
[23] = second compound 0.316 µM, first compound 3.16 µM
[24] = second compound 0.316 µM, first compound 10 µM
[25] = second compound 1 µM, first compound 0.0316 µM
[26] = second compound 1 µM, first compound 0.1 µM
[27] = second compound 1 µM, first compound 0.316 µM
[28] = second compound 1 µM, first compound 1 µM
[29] = second compound 1 µM, first compound 3.16 µM
[30] = second compound 1 µM, first compound 10 µM
[31] = second compound 3.16 µM, first compound 0.0316 µM
[32] = second compound 3.16 µM, first compound 0.1 µM
[33] = second compound 3.16 µM, first compound 0.316 µM
[34] = second compound 3.16 µM, first compound 1 µM
[35] = second compound 3.16 µM, first compound 3.16 µM
[36] = second compound 3.16 µM, first compound 10 µM
[37] = second compound 10 µM, first compound 0.0316 µM
[38] = second compound 10 µM, first compound 0.1 µM
[39] = second compound 10 µM, first compound 0.316 µM
[40] = second compound 10 µM, first compound 1 µM
[41] = second compound 10 µM, first compound 3.16 µM
[42] = second compound 10 µM, first compound 10 µM
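Note: spheroids exposed to compounds for 7 days before readout.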
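Throughout, for viability, T/C: 100% = DMSO vehicle wells with luminescence normalized to vehicle control.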

`CC(=O)O[C@H]1C(=O)[C@@]2(C)[C@H]([C@H](OC(=O)c3ccccc3)[C@]3(O)C[C@H](OC(=O)[C@H](O)[C@@H](NC(=O)c4ccccc4)c4ccccc4)C(C)=C1C3(C)C)[C@]1(OC(C)=O)CO[C@@H]1C[C@@H]2O` was tested, and the viability, T/C (compound 0.0316 µM) was 39.2% and 16.7%, the viability, T/C (compound 0.1 µM) was 20.1% and 11.8% and the viability, T/C (compound 0.316 µM) was 19.2% and 10.8%. The viability, T/C (compound 1 µM) was 15.5% and 6.12%, the viability, T/C (compound 3.16 µM) was 20% and 10.1% and the viability, T/C (compound 10 µM) was 23.2% and 10.5%. For the same compound, the IC50 (curve of compound) was under 31.6 nM.

Compound `COc1cccc2c1C(=O)c1c(O)c3c(c(O)c1C2=O)CC(O)(C(=O)CO)CC3OC1CC(N)C(O)C(C)O1` (configuration not stated) + CN1CCN(c2cc(C(=O)Nc3cc4cc(-c5cnn(C)c5)ccc4cn3)ccn2)CC1 has an IC50 [1] of 308 nM, an IC50 [2] of 247 nM and an IC50 [3] of under 31.6 nM. The IC50 [4] was under 31.6 nM, the IC50 [5] was under 31.6 nM and the IC50 [6] was under 31.6 nM. For the same compound, the viability, T/C [7] was 105%, the viability, T/C [8] was 109% and the viability, T/C [9] was 48.1%. The viability, T/C [10] was 9.14%, the viability, T/C [11] was 0.19% and the viability, T/C [12] was 0.25%. For the same compound, the viability, T/C [13] was 115%, the viability, T/C [14] was 89.1% and the viability, T/C [15] was 40.7%. For the same compound, the viability, T/C [16] was 5.59%, the viability, T/C [17] was 0.19% and the viability, T/C [18] was 0.21%. It also gave a viability, T/C [19] of 18.3%, a viability, T/C [20] of 13.6% and a viability, T/C [21] of 6.17%. For the same compound, the viability, T/C [22] was 0.17%, the viability, T/C [23] was 1.79% and the viability, T/C [24] was 0.82%. It also gave a viability, T/C [25] of 0.13%, a viability, T/C [26] of 0.18% and a viability, T/C [27] of 0.16%. It also gave a viability, T/C [28] of 0.17%, a viability, T/C [29] of 3.15% and a viability, T/C [30] of 0.74%. It also gave a viability, T/C [31] of 1.46%, a viability, T/C [32] of 0.16% and a viability, T/C [33] of 0.94%. The viability, T/C [34] was 2.29%, the viability, T/C [35] was 2.17% and the viability, T/C [36] was 1.43%. It also gave a viability, T/C [37] of 0.09%, a viability, T/C [38] of 0.11% and a viability, T/C [39] of 0.22%. For the same compound, the viability, T/C [40] was 2.57%, the viability, T/C [41] was 0.16% and the viability, T/C [42] was 1.03%.

For `Nc1ccn(C2OC(CO)C(O)C2(F)F)c(=O)n1` (configuration not stated) + CN1CCN(c2cc(C(=O)Nc3cc4cc(-c5cnn(C)c5)ccc4cn3)ccn2)CC1, the IC50 [1] was 192 nM, the IC50 [2] was 242 nM and the IC50 [3] was under 31.6 nM. For the same compound, the IC50 [4] was under 31.6 nM, the IC50 [5] was under 31.6 nM and the IC50 [6] was under 31.6 nM. The viability, T/C [7] was 93.3%, the viability, T/C [8] was 62.8% and the viability, T/C [9] was 40.7%. It also gave a viability, T/C [10] of 33.8%, a viability, T/C [11] of 38% and a viability, T/C [12] of 38.3%. The viability, T/C [13] was 112%, the viability, T/C [14] was 74.6% and the viability, T/C [15] was 42.3%. It also gave a viability, T/C [16] of 32.8%, a viability, T/C [17] of 30.2% and a viability, T/C [18] of 29.7%. The viability, T/C [19] was 18%, the viability, T/C [20] was 21.2% and the viability, T/C [21] was 20.4%. For the same compound, the viability, T/C [22] was 19%, the viability, T/C [23] was 16.7% and the viability, T/C [24] was 17.5%. For the same compound, the viability, T/C [25] was 0.16%, the viability, T/C [26] was 0.19% and the viability, T/C [27] was 0.2%. It also gave a viability, T/C [28] of 0.11%, a viability, T/C [29] of 1.16% and a viability, T/C [30] of 1.27%. It also gave a viability, T/C [31] of 0.18%, a viability, T/C [32] of 2.52% and a viability, T/C [33] of 0.18%. For the same compound, the viability, T/C [34] was 0.15%, the viability, T/C [35] was 0.92% and the viability, T/C [36] was 1.45%. It also gave a viability, T/C [37] of 0.18%, a viability, T/C [38] of 1.54% and a viability, T/C [39] of 0.18%. The viability, T/C [40] was 0.17%, the viability, T/C [41] was 2.1% and the viability, T/C [42] was 4.24%.

With `CNC(=O)c1ccc(Nc2nc(OC3CCCC3)c3c(-c4ccc5nc(C)oc5c4)c[nH]c3n2)c(OC)c1` the viability, T/C (compound 0.1 µM) was 54.9% [middle of 12 runs], the viability, T/C (compound 0.316 µM) was 34.4% [middle of 12 runs] and the viability, T/C (compound 1 µM) was 22.6% [middle of 12 runs]. For the same compound, the viability, T/C (compound 3.16 µM) was 16% [middle of 12 runs], the viability, T/C (compound 10 µM) was 15.4% [middle of 12 runs] and the IC50 (compound alone, run of 08/01/2023) was 130 nM [middle of 12 runs].
